According to PubChem BioAssay (NCI):
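A five-concentration, 48-hour dose response in 96-well plates underlies each endpoint, interpolated linearly between surrounding concentrations. TGI: total growth inhibition.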

Experiments:
Test in all cases: NCI tumour cell line growth inhibition, 48 h
UO-31 renal = tested on: UO-31 renal
HS 578T breast = tested on: HS 578T breast
SNB-19 CNS = tested on: SNB-19 CNS
K-562 leukemia = tested on: K-562 leukemia
786-0 renal = tested on: 786-0 renal
BT-549 breast = tested on: BT-549 breast
ACHN renal = tested on: ACHN renal
MCF7 breast = tested on: MCF7 breast
UACC-257 melanoma = tested on: UACC-257 melanoma
TK-10 renal = tested on: TK-10 renal
IGROV1 ovarian = tested on: IGROV1 ovarian
RXF 393 renal = tested on: RXF 393 renal
T-47D breast = tested on: T-47D breast
SK-MEL-2 melanoma = tested on: SK-MEL-2 melanoma
OVCAR-3 ovarian = tested on: OVCAR-3 ovarian
U251 CNS = tested on: U251 CNS
MDA-N = tested on: MDA-N
SK-OV-3 ovarian = tested on: SK-OV-3 ovarian
NCI-H522 lung = tested on: NCI-H522 lung
SK-MEL-5 melanoma = tested on: SK-MEL-5 melanoma
KM12 colon = tested on: KM12 colon
HL-60(TB) leukemia = tested on: HL-60(TB) leukemia
HOP-62 NSCLC = tested on: HOP-62 NSCLC
HCT-116 colon = tested on: HCT-116 colon
DU-145 prostate = tested on: DU-145 prostate
OVCAR-8 ovarian = tested on: OVCAR-8 ovarian
HCC-2998 colon = tested on: HCC-2998 colon
HT29 colon = tested on: HT29 colon
A549 NSCLC = tested on: A549 NSCLC
UACC-62 melanoma = tested on: UACC-62 melanoma
RPMI-8226 leukemia = tested on: RPMI-8226 leukemia
SR leukemia = tested on: SR leukemia
MOLT-4 leukemia = tested on: MOLT-4 leukemia
SF-268 CNS = tested on: SF-268 CNS
NCI-H23 lung = tested on: NCI-H23 lung
SF-295 CNS = tested on: SF-295 CNS
NCI-H460 lung = tested on: NCI-H460 lung
MDA-MB-231 breast = tested on: MDA-MB-231 breast
COLO 205 colon = tested on: COLO 205 colon
LOX IMVI melanoma = tested on: LOX IMVI melanoma
NCI/ADR-RES ovarian = tested on: NCI/ADR-RES ovarian
EKVX NSCLC = tested on: EKVX NSCLC
HOP-92 NSCLC = tested on: HOP-92 NSCLC
SN12C renal = tested on: SN12C renal
NCI-H226 lung = tested on: NCI-H226 lung
SF-539 CNS = tested on: SF-539 CNS
SNB-75 CNS = tested on: SNB-75 CNS
HCT-15 colon = tested on: HCT-15 colon
MDA-MB-435 = tested on: MDA-MB-435
CAKI-1 renal = tested on: CAKI-1 renal
SW-620 colon = tested on: SW-620 colon
SK-MEL-28 melanoma = tested on: SK-MEL-28 melanoma
CCRF-CEM leukemia = tested on: CCRF-CEM leukemia
PC-3 prostate = tested on: PC-3 prostate
M14 melanoma = tested on: M14 melanoma

Measured: TGI

CN=c1oc2ccccc2cc1C(N)=O
> 100 µM: all assays above
